Patent US10456376B2, “Use of carbamate compound in order to preventatively treat headaches” (SK BIOPHARMACEUTICALS CO., LTD., priority 2016, dated 2019)

Test system: cortical spreading depression (CSD) in rats
Assay: KCl-induced cortical spreading depression (CSD) animal model of migraine; cerebral blood flow and DC potential measurement
Format: in vivo, Wistar rats
Details: for number of DC-potential events: KCl-induced CSD (FIG. 3)
Protocol: All animal experiments were conducted in accordance with the National Institutes of Health (NIH) guidelines for the protection and use of laboratory animals and were approved by the State National Animal Experiment Board of Finland. A total of 48 adult male Wistar rats weighing 250 to 350 g were purchased from Charles River (Germany) and used in this experiment. The animals were raised at ambient temperature (22±1° C.) under an environment in which food and water could be consumed arbitrarily and lighting was controlled (illuminated from 7 am to 8 pm). The animals were divided into the following four groups: • Twelve rats as a negative control group which were intraperitoneally administered 30% PEG400 (5 ml/kg) only, the vehicle of administration, once a day for three weeks • Twelve rats which were intraperitoneally administered the test compound at a dose of 10 mg/kg once a day for three weeks • Twelve rats which were intraperitoneally administered the test compound at a dose of 30 mg/kg once a day for three weeks • Twelve rats as a positive control which were intraperitoneally administered Topiramate at a dose of 80 mg/kg once a day for three weeks
On the last day of the three weeks of administration of the compound and the vehicle (30% PEG 400), the rats were anesthetized with 5% isoflurane (70% N2O and 30% O2 included, dose rate of 300 ml/min) and then were fixed to a stereotactic frame to perform the following surgery. During surgery, the concentration of anesthetic was reduced to 1 to 1.5%, and the rectal temperature was maintained at 37.0±1.0° C. using the homeothermic blanket system.
The skin of the rat head was incised and tilted to both sides, and the right hemisphere of the open skull was drilled using a drill to make three holes, the positions of which are as follows and are indicated by “mm” distance from the bregma; (1) in the occipital cortex, 4.5 at the rear and 2.0 at the lateral; (2) in the parietal cortex, 0.5 at the rear and 2.0 at the lateral; (3) in the frontal cortex, 2 at the front and 2 at the lateral. A laser-Doppler flow probe (Oxyflow, Oxford Optronics, UK) for monitoring the cerebral blood flow (CBF) and an invasive Ag/AgCl electrode for measuring the direct current (DC) potential change were placed on the uninjured dura of the holes drilled in the parietal and frontal cortex and within the cortex, respectively.
The laser-Doppler flow probes were placed in areas with no large pial and dural blood vessels to minimize the interference of the large vessels to the signal. For the measurement of the DC potential difference, a reference electrode was fixed to the neck. The dura on the occipital cortex was carefully removed and care was taken to minimize bleeding. After surgery, the cortical area was restored by washing with saline for 15 minutes. Sphere-shaped (2 mm diameter) cotton wool was wetted with 1 M KCl solution and placed on the pia, and 5 μl of KCl solution was added thereto every 15 minutes to prevent drying. The occurrence of KCl-induced cortical spreading depression (CSD) was measured for 2 hours.
Cerebral blood flow (CBF) and DC potential were continuously monitored starting 5 minutes before KCl treatment. The last drug administration took place 30 minutes before the KCl solution treatment. The parameters analyzed were (1) the number of events of DC potential, the duration of the event, the magnitude of amplitude, and (2) the number of events of cerebral blood flow change and the size of the magnitude of change. […] Statistical analysis was performed using unpaired t-test on StatsDirect statistical software.

With CC1(C)O[C@@H]2[C@@H](CO[C@@]3(COS(N)(=O)=O)OC(C)(C)O[C@@H]23)O1 [Topiramate, reference compound] as the compound, how does the “number of events of increased cerebral blood flow (CBF)” value (80 mg/kg i.p. once a day for three weeks, positive control, KCl-induced CSD (FIG. 1)) read?
Its value is “reduction effect”.

What about the “number of DC-potential events” value (80 mg/kg i.p. once a day for three weeks, positive control) of the same compound?
Its value is “effect shown”.

NC(=O)O[C@@H](Cn1ncnn1)c1ccccc1Cl [test compound] was tested. Which “number of DC-potential events” value (30 mg/kg i.p. once a day for three weeks, compared to vehicle treated group) did it give?
Its value is “significantly reduced”.

What about the “number of events of increased cerebral blood flow (CBF)” value (30 mg/kg i.p. once a day for three weeks, compared to vehicle treated group, KCl-induced CSD measured for 2 hours (FIG. 1)) of the same compound?
Its value is “significantly reduced”.

And the “degree of cerebral blood flow increase” value (i.p. once a day for three weeks, compared to vehicle, KCl-induced CSD (FIG. 2))?
Its value is “no significant effect”.

What about the “magnitude of amplitude of the DC-potential event” value (i.p. once a day for three weeks, compared to vehicle, KCl-induced CSD (FIG. 4)) of the same compound?
The value was “no significant effect”.

What about the “duration of the DC-potential event” value (i.p. once a day for three weeks, compared to vehicle, KCl-induced CSD (FIG. 5)) of the same compound?
Its value is “no significant effect”.
